# Key:
# [1] = test system: SNU620; experiment: MTT cytotoxicity test (GI50); format: cell-based; conditions: Homo sapiens; SNU620, cancer, gastric; MTT 72 h
# [2] = test system: SNU449; experiment: MTT cytotoxicity test (GI50); format: cell-based; conditions: Homo sapiens, SNU-449; SNU449, cancer, liver; MTT 72 h
# [3] = test system: IST1; experiment: MTT cytotoxicity test (GI50); format: cell-based; conditions: Homo sapiens; IST1, cancer, gastric; MTT 72 h
# [4] = test system: HCT15; experiment: MTT cytotoxicity test (GI50); format: cell-based; conditions: Homo sapiens, HCT-15; HCT15, cancer, colon; MTT 72 h
# [5] = molecular target: T1, Isoform 3 of Cleavage and polyadenylation specificity factor subunit 7 (Homo sapiens, UniProt Q8N684); experiment: MS-CETSA in normal BJ cell lysates; format: binding; conditions: Uniprot Q8N684-3, lysate, 100 μM compound
# T1 construct: After collecting data covering >8,000 proteins in lysates of normal BJ cells; endogenous in cells; host or cells: normal BJ cells, lysate
# T1 sequence (Q8N684 1-514 isoform Q8N684-3): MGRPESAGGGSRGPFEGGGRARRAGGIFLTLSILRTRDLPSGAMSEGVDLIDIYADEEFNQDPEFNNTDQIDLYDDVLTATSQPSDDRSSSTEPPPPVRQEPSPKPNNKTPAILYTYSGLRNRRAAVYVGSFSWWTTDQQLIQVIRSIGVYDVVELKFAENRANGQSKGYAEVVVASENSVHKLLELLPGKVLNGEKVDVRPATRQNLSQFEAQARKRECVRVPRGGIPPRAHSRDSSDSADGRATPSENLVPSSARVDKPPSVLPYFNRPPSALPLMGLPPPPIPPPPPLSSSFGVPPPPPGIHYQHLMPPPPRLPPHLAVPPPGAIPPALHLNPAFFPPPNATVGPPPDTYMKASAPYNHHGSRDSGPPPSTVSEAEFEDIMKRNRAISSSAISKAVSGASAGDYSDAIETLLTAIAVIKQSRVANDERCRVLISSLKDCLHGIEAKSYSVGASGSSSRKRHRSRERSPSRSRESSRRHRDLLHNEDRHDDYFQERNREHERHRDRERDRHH
# Procedure: (§2) Target identification was performed by cellular thermal shift assay (CETSA) coupled with quantitative mass spectrometry. In brief, normal BJ cells were lysed by combination of freeze/thaw and mechanical shearing with needle in buffer [50 mM HEPES (pH 7.5), 5 mM β-glycerophosphate, 0.1 mM Sodium Vanadate, 10 mM MgCl2, 1 mM TCEP and 1× Protease inhibitor Cocktail]. The cell debris was removed by centrifugation at 20,000 g for 20 min at 4° C. […] Each lysate was divided into 10 aliquots for heat treatment at the respective temperatures for 3 min in a 96-well thermocycler, followed by 3 min at 4° C. The lysate was centrifuged at 20,000 g for 20 min at 4° C. and the supernatant was transferred into microtubes for MS sample preparation.
# (§3) After lysis, at least 100 μg of the protein (measured with a BCA assay) was subjected to reduction, denaturation and alkylation. Samples were subsequently incubated with sequencing grade LysC (Wako) and trypsin (Promega) for digestion overnight at 37° C. The digested samples were dried using a centrifugal vacuum evaporator, solubilized in 100 mM TEAB. […]
# (§4) Proteins for which a low temperature plateau was not present were deleted using a cut off >0.85 for the average reading of the first three temperature points (in our experience proteins melting already at −37° C. are more prone to give false positives in a shift analysis).
# [6] = test system: A549; experiment: MTT cytotoxicity test (GI50); format: cell-based; conditions: Homo sapiens; A549, cancer, others, lung; MTT 72 h
# [7] = molecular target: T2, AP-3 complex subunit sigma-1 (Homo sapiens, UniProt Q92572); experiment: MS-CETSA in normal BJ cell lysates; format: binding; conditions: lysate, 100 μM compound
# T2 construct: After collecting data covering >8,000 proteins in lysates of normal BJ cells; endogenous in cells; host or cells: normal BJ cells, lysate
# T2 sequence (Q92572 whole entry): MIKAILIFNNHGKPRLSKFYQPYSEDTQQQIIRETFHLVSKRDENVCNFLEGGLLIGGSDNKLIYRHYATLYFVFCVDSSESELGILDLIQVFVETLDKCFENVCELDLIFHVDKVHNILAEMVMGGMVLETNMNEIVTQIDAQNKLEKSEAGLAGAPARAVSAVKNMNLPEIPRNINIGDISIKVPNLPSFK
# T2 sequence (O14617 whole entry partner): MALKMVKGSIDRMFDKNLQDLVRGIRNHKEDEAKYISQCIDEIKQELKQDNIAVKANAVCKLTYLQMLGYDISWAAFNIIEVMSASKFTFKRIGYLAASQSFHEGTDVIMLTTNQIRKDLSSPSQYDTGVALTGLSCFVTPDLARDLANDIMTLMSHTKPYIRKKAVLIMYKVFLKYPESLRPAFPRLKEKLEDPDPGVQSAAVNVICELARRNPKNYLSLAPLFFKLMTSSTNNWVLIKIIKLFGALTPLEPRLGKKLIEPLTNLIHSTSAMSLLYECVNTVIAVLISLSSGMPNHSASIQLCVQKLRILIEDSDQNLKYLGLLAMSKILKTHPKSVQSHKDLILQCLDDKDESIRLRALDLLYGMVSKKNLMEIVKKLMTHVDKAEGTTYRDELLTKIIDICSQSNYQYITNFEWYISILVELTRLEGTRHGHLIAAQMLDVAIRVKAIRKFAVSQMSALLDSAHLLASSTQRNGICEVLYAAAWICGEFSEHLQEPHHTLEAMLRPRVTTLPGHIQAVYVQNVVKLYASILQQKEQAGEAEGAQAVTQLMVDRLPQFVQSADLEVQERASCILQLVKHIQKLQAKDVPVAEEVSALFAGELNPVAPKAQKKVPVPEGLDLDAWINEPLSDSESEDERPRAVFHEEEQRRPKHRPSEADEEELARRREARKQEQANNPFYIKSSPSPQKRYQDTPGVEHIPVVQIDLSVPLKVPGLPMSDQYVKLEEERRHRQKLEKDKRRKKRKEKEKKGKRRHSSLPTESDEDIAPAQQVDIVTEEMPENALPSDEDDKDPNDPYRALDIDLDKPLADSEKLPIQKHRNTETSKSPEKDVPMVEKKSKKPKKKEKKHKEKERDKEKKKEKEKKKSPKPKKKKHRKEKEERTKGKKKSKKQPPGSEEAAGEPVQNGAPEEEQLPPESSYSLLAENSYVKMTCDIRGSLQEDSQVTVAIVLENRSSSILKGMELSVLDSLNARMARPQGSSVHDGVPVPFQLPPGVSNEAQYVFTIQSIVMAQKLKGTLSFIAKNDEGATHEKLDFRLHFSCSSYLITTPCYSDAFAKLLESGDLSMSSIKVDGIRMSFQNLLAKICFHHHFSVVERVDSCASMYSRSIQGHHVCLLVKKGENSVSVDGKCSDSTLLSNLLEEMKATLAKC
# T2 sequence (O00203 whole entry partner): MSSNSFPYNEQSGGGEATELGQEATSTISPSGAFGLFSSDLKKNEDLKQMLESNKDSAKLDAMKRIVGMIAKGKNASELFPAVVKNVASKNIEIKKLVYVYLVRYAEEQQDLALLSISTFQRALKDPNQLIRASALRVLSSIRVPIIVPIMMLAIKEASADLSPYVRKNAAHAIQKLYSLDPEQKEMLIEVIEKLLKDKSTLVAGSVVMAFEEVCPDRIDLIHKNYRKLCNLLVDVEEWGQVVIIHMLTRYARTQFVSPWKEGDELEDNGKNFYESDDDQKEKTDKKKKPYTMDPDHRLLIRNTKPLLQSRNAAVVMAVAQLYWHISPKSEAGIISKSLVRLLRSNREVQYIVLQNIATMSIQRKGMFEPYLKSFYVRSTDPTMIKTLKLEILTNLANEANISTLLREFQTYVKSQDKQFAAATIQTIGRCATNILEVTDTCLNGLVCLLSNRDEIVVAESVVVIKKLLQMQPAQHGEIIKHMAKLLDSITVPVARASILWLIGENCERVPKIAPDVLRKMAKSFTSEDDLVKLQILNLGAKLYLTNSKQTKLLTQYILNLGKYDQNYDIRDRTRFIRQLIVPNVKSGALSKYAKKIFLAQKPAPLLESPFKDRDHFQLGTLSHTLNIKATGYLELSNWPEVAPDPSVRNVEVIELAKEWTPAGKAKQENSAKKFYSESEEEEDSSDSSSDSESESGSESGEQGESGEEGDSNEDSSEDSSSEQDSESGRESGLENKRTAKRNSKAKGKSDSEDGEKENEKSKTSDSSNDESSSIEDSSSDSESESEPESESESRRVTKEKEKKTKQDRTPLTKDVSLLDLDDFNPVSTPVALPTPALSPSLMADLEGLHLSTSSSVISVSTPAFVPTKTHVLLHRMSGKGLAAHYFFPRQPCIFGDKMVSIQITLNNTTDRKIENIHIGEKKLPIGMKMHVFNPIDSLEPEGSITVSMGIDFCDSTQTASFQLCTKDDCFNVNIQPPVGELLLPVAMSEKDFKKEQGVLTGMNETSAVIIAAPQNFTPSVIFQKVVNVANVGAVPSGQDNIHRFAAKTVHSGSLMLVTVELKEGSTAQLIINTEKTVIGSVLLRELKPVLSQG
# T2 sequence (Q9Y2T2 whole entry partner): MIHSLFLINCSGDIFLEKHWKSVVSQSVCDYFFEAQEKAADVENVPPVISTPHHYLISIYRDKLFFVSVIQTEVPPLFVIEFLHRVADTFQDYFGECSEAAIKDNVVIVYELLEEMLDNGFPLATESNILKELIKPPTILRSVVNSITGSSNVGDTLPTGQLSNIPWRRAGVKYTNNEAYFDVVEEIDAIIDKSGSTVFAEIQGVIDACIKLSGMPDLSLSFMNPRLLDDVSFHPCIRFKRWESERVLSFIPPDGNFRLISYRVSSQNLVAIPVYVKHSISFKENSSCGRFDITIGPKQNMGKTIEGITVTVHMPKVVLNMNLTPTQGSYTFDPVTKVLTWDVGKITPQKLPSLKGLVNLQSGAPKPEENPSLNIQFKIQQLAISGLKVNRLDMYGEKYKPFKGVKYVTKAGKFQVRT
# Procedure: as §2, §3, §4
# [8] = molecular target: T3, Isoform 2 of Ferrochelatase, mitochondrial (Homo sapiens, UniProt P22830); experiment: MS-CETSA in normal BJ cell lysates; format: binding; conditions: Uniprot P22830-2, lysate, 100 μM compound
# T3 construct: After collecting data covering >8,000 proteins in lysates of normal BJ cells; endogenous in cells; host or cells: normal BJ cells (hTert-immortalised human foreskin fibroblasts), lysate
# T3 sequence (P22830 55-429 isoform P22830-2 limits assumed): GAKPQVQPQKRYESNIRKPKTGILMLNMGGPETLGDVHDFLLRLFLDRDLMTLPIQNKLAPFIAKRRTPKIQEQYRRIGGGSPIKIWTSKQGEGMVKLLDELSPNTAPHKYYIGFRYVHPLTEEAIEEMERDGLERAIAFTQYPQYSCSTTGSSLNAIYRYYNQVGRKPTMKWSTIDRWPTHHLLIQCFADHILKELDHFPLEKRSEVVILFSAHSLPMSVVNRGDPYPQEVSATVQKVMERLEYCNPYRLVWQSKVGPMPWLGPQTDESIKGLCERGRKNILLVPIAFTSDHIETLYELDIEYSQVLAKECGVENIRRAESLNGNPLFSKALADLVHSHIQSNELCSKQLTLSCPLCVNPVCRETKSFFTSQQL
# Procedure: as §2, §3, §4
# [9] = test system: PI3K/Akt/mTOR pathway; experiment: Immunoblot of phosphorylated Akt and p70S6K; format: cell-based, human; conditions: normal versus transformed BJ cells, 24 h
# Procedure: Total cell lysates were prepared with 1% triton lysis buffer [25 mM Tris HCl (pH 8.0), 150 mM NaCl, 1% triton-X100, 1 mM dithiothreitol (DTT), protease inhibitor mix (Complete Mini, Roche) and phosphatase inhibitor (PhosphoStop, Roche)] and subjected to SDS-PAGE. The following antibodies were used for immunoblotting: anti-β-actin (Sigma-Aldrich), anti-cleaved PARP (Abcam, #ab32064), anti-PI5P4Kα (#5527), anti-PI5P4Kβ (#9694), anti-cleaved caspase-3 (#9664), anti-pHistone H3(Ser10) (#3377), anti-pAkt(S473) (#9271), anti-pAkt(T308) (#13038), anti-total Akt (#9272), anti-p70S6K(T389) (#9234), anti-total p70S6K (#9202), anti-pErk (#4370), anti-γ-Histone H2AX (#9718) (Cell signaling) and anti-PIK3IP1 (Proteintech, #16826-1-AP). The secondary antibodies used were sheep anti-mouse IgG HRP and donkey anti-rabbit IgG HRP (Amersham; 1:2000 dilution). Immunoreactive proteins were visualized using ECL reagent (Amersham). Where indicated, intensities of protein bands were quantified by densitometry (Odyssey V3.0), normalized to their loading controls and then calculated as fold expression change relative to DMSO control.
# [10] = test system: ARPE-19; experiment: MTT cytotoxicity test (GI50); format: cell-based; conditions: Homo sapiens; ARPE-19, normal, retina; MTT 72 h
# [11] = molecular target: T4, Phosphatidylinositol 5-phosphate 4-kinase type-2 gamma (Homo sapiens, UniProt Q8TBX8); experiment: MS-CETSA in normal BJ cell lysates; format: binding; conditions: lysate, 100 μM compound
# T4 construct: After collecting data covering >8,000 proteins in lysates of normal BJ cells; endogenous in cells; host or cells: normal BJ cells, lysate
# T4 sequence (Q8TBX8 whole entry): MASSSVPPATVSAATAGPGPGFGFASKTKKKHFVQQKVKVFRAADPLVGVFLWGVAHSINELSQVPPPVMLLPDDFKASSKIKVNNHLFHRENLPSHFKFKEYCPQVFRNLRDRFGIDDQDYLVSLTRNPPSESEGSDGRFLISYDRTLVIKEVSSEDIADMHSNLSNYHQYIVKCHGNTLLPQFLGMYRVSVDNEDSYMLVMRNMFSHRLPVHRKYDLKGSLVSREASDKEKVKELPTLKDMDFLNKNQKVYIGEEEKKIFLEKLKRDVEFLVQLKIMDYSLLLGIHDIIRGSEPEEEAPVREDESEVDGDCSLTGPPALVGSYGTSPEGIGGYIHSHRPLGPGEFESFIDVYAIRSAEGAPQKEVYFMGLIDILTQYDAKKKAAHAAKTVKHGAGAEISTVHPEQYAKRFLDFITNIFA
# Procedure: as §2, §3, §4
# [12] = test system: normal BJ cells with activated H-RasV12-ER; experiment: FACS subG1 in engineered BJ-derived fibroblasts; format: cell-based, human; conditions: 5 μM, 48 h
# Procedure: Isogenic BJ human foreskin fibroblast cell lines, including non-transformed (normal) and transformed BJ cells and all gastric cancer cell lines, were kind gifts from Dr. Mathijs Voorhoeve and Dr. Patrick Tan (Duke-NUS), respectively and tested for mycoplasma infection. All other human cancer cell lines used in this study were purchased from ATCC and cultured in accordance with ATCC's instructions. H-RasV12-ER was activated by exposing the BJ-derived fibroblasts to 4-OHT (100 nM, Sigma-Aldrich). Three different sets of siRNAs were used in this study to target PI5P4K isoform DNA sequences as follows:
# Cell death was assessed via Annexin V and/or PI (propidium iodide) staining according to the manufacturer's instructions (eBioscience). Cell growth arrest was assessed by direct measurement of DNA synthesis through incorporation of the nucleoside analog bromodeoxyuridine (BrdU). Briefly, BrdU (30 μM, Sigma-Aldrich) was added for 2 h before harvesting cells. […] Stained cells were analyzed by MACSQuant (MACS). […] The percentage of Annexin V/PI- or BrdU-positive cells was quantified using Flow Jo software (Becton Dickinson). Where indicated, the combined activity of caspase-3/7 was determined using the caspase-Glo 3/7 Assay Kit (Promega) and normalized to the number of viable cells as determined by MTT assay.
# [13] = test system: AZ521; experiment: MTT cytotoxicity test (GI50); format: cell-based; conditions: Homo sapiens, AZ-521; AZ521, cancer, gastric; MTT 72 h
# [14] = test system: cancer cell lines; experiment: FACS of subG1 (PI) and Annexin V in cancer and normal cell lines; format: cell-based, human; conditions: 2.5 μM and 5 μM, 48 h
# Procedure: (§1) Cell death was assessed via Annexin V and/or PI (propidium iodide) staining according to the manufacturer's instructions (eBioscience). Cell growth arrest was assessed by direct measurement of DNA synthesis through incorporation of the nucleoside analog bromodeoxyuridine (BrdU). Briefly, BrdU (30 μM, Sigma-Aldrich) was added for 2 h before harvesting cells. Cells were subsequently stained with Pacific Blue-conjugated BrdU antibody (Invitrogen) for 1 h followed by PI staining. Stained cells were analyzed by MACSQuant (MACS). Three independent experiments were performed in triplicate. The percentage of Annexin V/PI- or BrdU-positive cells was quantified using Flow Jo software (Becton Dickinson). Where indicated, the combined activity of caspase-3/7 was determined using the caspase-Glo 3/7 Assay Kit (Promega) and normalized to the number of viable cells as determined by MTT assay.
# [15] = test system: SNU1; experiment: MTT cytotoxicity test (GI50); format: cell-based; conditions: Homo sapiens; SNU1, cancer, gastric; MTT 72 h
# [16] = test system: SNU1750; experiment: MTT cytotoxicity test (GI50); format: cell-based; conditions: Homo sapiens; SNU1750, cancer, gastric; MTT 72 h
# [17] = test system: BJ normal; experiment: MTT cytotoxicity test (GI50); format: cell-based; conditions: Homo sapiens, skin, MTT 72 h
# [18] = test system: HeLa; experiment: MTT cytotoxicity test (GI50); format: cell-based; conditions: Homo sapiens, cancer, others, cervix, MTT 72 h
# [19] = test system: transformed BJ cells; experiment: FACS analysis of the cell cycle (BrdU and PI double staining); format: cell-based, human; conditions: 2.5 μM, 48 h
# Procedure: as §1
# [20] = test system: RPE-1/hTert; experiment: MTT cytotoxicity test (GI50); format: cell-based; conditions: Homo sapiens, normal, retina, MTT 72 h
smiles,measurement,setting,value
"N#C/C(=C\c1cccc2cnccc12)c1c[nH]c2ccccc12 [a131, (Z)-2-(1H-indol-3-yl)-3-(5-isoquinolyl)prop-2-enenitrile]",GI50,[1],1 µM
same,GI50,[2],2.3 µM
same,GI50,[3],2.2 µM
same,GI50,[4],0.5 µM
same,ED score,[5],0.3008
same,mean Delta Tm,[5]; in °C (unit assumed),1.653
same,GI50,[6],2 µM
same,ED score,[7],0.3486
same,ΔTm at 100 µM,[7]; read-out: mean Delta Tm,2.26 °C
same,ED score,[8],0.8366
same,ΔTm at 100 µM,[8]; read-out: mean Delta Tm,3.81 °C
same,inhibition of the PI3K/Akt/mTOR pathway,[9],"consistently caused inhibition of the PI3K/Akt/mTOR pathway only in normal BJ cells, but not in transformed counterparts"
same,GI50,[10],> 10 µM
same,ED score,[11],0.5989
same,ΔTm at 100 µM,[11]; read-out: mean Delta Tm,2.89 °C
same,a131-induced cell death after 4-OHT-induced activation of H-RasV12-ER,[12],sufficient to sensitize normal BJ cells to a131-induced cell death
same,GI50,[13],2.4 µM
same,percentage of cells expressing Annexin V versus DMSO,[14],significantly higher (p<0.0001)
same,percentage of subG1 population versus DMSO,[14]; cancer cells,significantly higher (p<0.0001)
same,GI50,[15],0.9 µM
same,GI50,[16],0.7 µM
same,GI50,[17],8.1 µM
same,GI50,[18],1.4 µM
same,aneuploidy (>4N),[19],significantly induced aneuploidy (>4N) only in transformed BJ cells
same,"cell death (<2N, subG1)",[19]; transformed versus normal BJ cells,dramatically induced cell death (<2N) through apoptosis
same,GI50,[20],5.2 µM

# Reference: patent US20190350964A1, “ANTI-CANCER COMPOUNDS AND USES THEREOF” (NATIONAL UNIVERSITY OF SINGAPORE, priority 2016, published 2019)
